Measurements from patent US9546159B2, “N-substituted 3,4-bis (catechol) pyrrole compounds, and the preparation and use thereof in the treatment of cancer” (Centre National De La Recherche Scientifique (CNRS), priority 2012, dated 2017).

What was measured:
Type in all cases: cell-based
[1] = tested on: HCT-116 cells (colorectal carcinoma); test: cell growth test (CellTiter-Blue Cell Viability Assay); settings: Homo sapiens, 72 hours of treatment, read-out: IC50 (concentration of compound inducing a 50% reduction of cell growth)
Protocol: (§1) The biological activity of compound (1) was studied in vitro on 3 different cancer cell lines: • HCT-116 (colorectal carcinoma) • U87 (glioblastoma) • K562 (myeloid leukaemia) and on 3 normal non-cancerous cell types: • HUVEC (human umbilical vascular endothelial cells) • NHDF (human dermal fibroblasts) • HFDPC (human hair follicle dermal papilla cells).
(§2) The cells selected for this study were incubated at 37° in the presence of compound (1) added in the culture medium at different concentrations and at different times.
(§3) The effect of compound (1) on HCT-116, U87 and K562 cell growth was evaluated using a cell growth test (CellTiter-Blue™ m Cell Viability Assay, Promega). The growth curves and the IC50 values (concentration of compound inducing a 50% reduction of cell growth) determined after 72 hours of cell treatment with compound (1) are presented in FIG. 1. They are 30 nm for HCT-116 cells, 45 nM for U87 cells and 70 nM for K562.

K562 (myeloid leukaemia) = test: as above; settings: Homo sapiens; K562, 72 hours of treatment; read-out: IC50 (concentration of compound inducing a 50% reduction of cell growth)
Protocol: as §1, §2, §3

U87 cells (glioblastoma) = test: as above; settings: Homo sapiens, U-87 MG, 72 hours of treatment, read-out: IC50 (concentration of compound inducing a 50% reduction of cell growth)
Protocol: as §1, §2, §3

[2] = tested on: HFDPC (human hair follicle dermal papilla cells); test: cell growth, normal cells; settings: 72 hours of treatment
Protocol: as §1, §2, §3
(§4) In order to determine the specificity of action of compound (1) on cancer cells, we evaluated the effect thereof with respect to normal human HUVEC, NHDF and HFDPC cells and the HCT-116, U87 and K652 cancer cell annotations.

[3] = tested on: HUVEC cells (human umbilical vascular endothelial cells); test: cell growth, normal cells; settings: 72 hours of treatment
Protocol: as §1, §2, §3, §4

[4] = tested on: NHDF cells (human dermal fibroblasts); test: cell growth, normal cells; settings: 72 hours of treatment
Protocol: as §1, §2, §3, §4

HCT-116 cells [5] = test: counting live cells after trypan blue staining
Protocol: The effect of compound (1) on cell growth was described in more detail on the HCT-116 cell line. This study was conducted as a function of the concentration and exposure time of the cells to the molecule under test (24 hrs, 48 hrs and 72 hrs) by counting the number of live cells after excluding dead cells by means of trypan blue staining.
FIG. 2 represents the effect of compound (I) on the number and viability of HCT-116 cells as a function of the concentration thereof and the treatment time.

HCT-116 cells [6] = test: cell cycle flow cytometry analysis; settings: HCT-116, 24 hours, 30 and 50 nM
Protocol: This effect is significant after 24 hours of exposure of the cells to compound (1) used at the 30 and 50 nM concentrations (FIG. 4).

[7] = tested on: proteins p21 and p27 in HCT-116 cells; test: Western Blot of proteins p21 and p27; settings: HCT-116, 24 hours
Protocol: The gene of the protein p27 is described as being regulated by FOXO3, whereas that of the protein p21 is controlled by the p53 transcription factor, stimulated inter alia by oxidative stress. The HCT-116 cells were treated with compound (1) for 24 hours. The cell extracts were then analysed by Western Blot.

[8] = tested on: caspases 3 and 7 in HCT-116 cells; test: caspases 3 and 7 activity (Apo-ONE test); settings: HCT-116, 24 hours, 5 nM to 75 nM
Protocol: The activity of caspases 3 and 7, marker enzymes of apoptosis, was measured using the Apo-ONE (Promega) test after treating HCT-116 cells with compound (1) at concentrations varying from 5 nM to 75 nM.

HCT-116 cells [9] = test: mitochondrial transmembrane potential (JC-1 probe, flow cytometry); settings: HCT-116, 24 hours, 25 nM to 100 nM
Protocol: The study of the mitochondrial transmembrane potential, Δψm, was conducted by flow cytometry, using the JC-1 probe (MitoProbe™ JC-1 assay, Molecular Probes). JC-1 is a lipophilic […] compound which selectively penetrates the mitochondria, the colour whereof changes from green to red when the transmembrane potential increases.

[10] = tested on: protein LC3-II in HCT-116 cells; test: autophagy: Western Blot of LC3-II; settings: HCT-116, 24 hours, 5 nM to 100 nm
Protocol: In the aim of determining whether the stoppage of the cell cycle induced by compound (1) induces an autophagic reaction, the HCT-116 cells were treated with compound (1) at different doses for 24 hours. The cell extracts then underwent Western Blot analysis in order to view the expression of the protein LC3-II. Indeed, the protein LC3 exists in the cell either in cytosolic form (LC3-I) or associated with phagosomes (LC3-II). The latter is the marker of the autophagic reaction.

[11] = tested on: Akt protein serine 473 phosphorylation, FOXO3, peroxiredoxin 1 in HCT-116 cells; test: survival pathway PI3 kinase-Akt-Foxo Western Blot; settings: HCT-116, 24 hours
Protocol: In view of the stoppage of the cell cycle in the G0/G1 phase associated with an autophagic response in the absence of apoptosis following treatment with compound (1), we studied the action of this compound on the survival pathway involving PI3 kinase-Akt-Foxo. This signalling pathway is very frequently found to be disrupted (by stimulation) in a large number of cancer cells and contributes to the survival thereof.
Indeed, HCT-116 cells were exposed for 24 hours to the action of compound (1) at concentrations varying from 5 nM to 100 nm.

[12] = tested on: intracellular H2O2 in HCT-116 cells; test: intracellular H2O2 concentration (DCF-DA, flow cytometry)
Source text: The protein peroxiredoxin is an enzyme having a peroxidase activity, controlling the intracellular hydrogen peroxide (H2O2) concentration. Therefore, we evaluated the effect of compound (1) on the intracellular H2O2 concentration, using DCF-DA (2′,7′-dichlorofluorescein diacetate, Sigma) as a marker of intracellular H2O2. Hydrogen peroxide is an intracellular second messenger. It regulates, according to the concentration thereof, numerous functions such as proliferation or apoptosis. A reduction of the concentration thereof is associated with a decrease in proliferation.

normal human cells = test: specificity of action: normal human cells versus cancer cells; settings: in vitro, concentrations encompassing the IC50
Source text: as §4
The IC50 values are thus up to 300 times higher for normal cells compared to those obtained for cancer cells.

Which results are given for `O=[N+]([O-])c1cc(-c2cn(CCCN3CCCCCCCCCCCC3)cc2-c2cc(O)c(O)c([N+](=O)[O-])c2)cc(O)c1O` [compound (1), 5,5′-(1-(3-(Azacyclotridecan-1-yl)propyl)-1H-pyrrole-3,4-diyl)bis(3-nitrobenzene-1,2-diol)]?
IC50 [1]: 30 nM; IC50 (K562 (myeloid leukaemia)): 70 nM; IC50 (U87 cells (glioblastoma)): 45 nM; IC50 [2]: 10 µM; IC50 [3]: 2000 nM; IC50 [4]: 5 µM; nature of the action (cytostatic / cytotoxic) (HCT-116 cells [5]; HCT-116): cytostatic and not cytotoxic; reduction of the number of cells (HCT-116 cells [5]; HCT-116, 25 nM, 24 hours of treatment): 40%; cell viability (trypan blue) (HCT-116 cells [5]; HCT-116, 24, 48 and 72 hrs): lack of modification of cell viability; inhibition of the number of cells (HCT-116 cells [5]; HCT-116, from 48 hours, concentrations greater than the IC50): up to 80%; effect on the cell cycle (HCT-116 cells [6]): blocks cell division in the G0/G1 phase; expression of the protein p21 [7]: no significant effect; expression of protein p27 ([7]; 25 and 50 nM): increase in the expression of protein p27; activity of caspases 3 and 7 [8]: lack of variations in the activity of these enzymes; mitochondrial transmembrane potential Δψm (HCT-116 cells [9]): does not modify Δψm significantly; expression of LC3-II [10]: increase in the expression of LC3-II; expression of the protein FOXO3 ([11]; 5 nM to 100 nm): stimulates the expression of the protein FOXO3; expression of the protein peroxiredoxin 1 ([11]; 5 nM to 100 nm): stimulates the expression of the protein peroxiredoxin 1; Akt protein serine 473 phosphorylation ([11]; from the 25 nm concentration): totally suppresses; dose dependence of the effect on intracellular H2O2 ([12]; HCT-116): dose dependent; decrease of the intracellular H2O2 concentration ([12]; HCT-116, 50 nM, 18 hours of treatment): approximately 50%; cytotoxicity with respect to normal human cells (normal human cells): does not exhibit any cytotoxicity
